Data as given in US10064858B2, “Methods and compositions for treating bacterial infections with iron chelators” (THE UNITED STATES OF AMERICA, AS REPRESENTED BY THE …, priority 2011, dated 2018).

Key:
Format in all cases: cell-based
[1] = test system: AB5075 a MDR-clinical isolate of A. baumannii; assay: Time-kill assay in CAMHB; settings: for effect on CFU/ml (time-kill, FIG. 13): 2 and 6 hours; for time-kill course of CFU/mL: 24 hours (FIG. 8A)
Protocol: (§1) Reductions in colony forming units (CFU)/mL were determined over time (time-kill assay) after exposure to VK28 and deferiprone (DFP), the two iron chelators that performed best in MIC assays when compared to controls. To better represent the iron content found in the human body, MIC and time-kill assays were also determined in minimal media and tissue culture media. Time-Kill assays were performed as previously described in G. P. Neupane et al., “In vitro time-kill activities of ciprofloxacin alone and in combination with the iron chelator deferasirox against Vibrio vulnificus,” European Journal of Clinical Microbiology and Infectious Diseases, 407-410 (2010); and R. L. White, et al., “Comparison of Three Different In Vitro Methods of Detecting synergy: Time-Kill, Checkerboard, and E test,” Journal of Antimicrobial Agents and Chemotherapy, 1914-1918 (1996). Initial inocula, for example 1×10^6 CFU/mL or 1×10^7 CFU/mL were challenged with iron chelator with and/or without an antibiotic. Cells were allowed to grow in CAMHB at 37° C. for 24 hours. Time-kill results were analyzed by determining the change in log 10 numbers of CFU/ml at 0, 6, and 24 h, compared to counts at 0 h. Antimicrobials were considered bactericidal at the lowest concentration that reduced the size of the original inoculum by >3 log 10 CFU/ml (99.9%) over each of the time periods and were considered bacteriostatic if the inoculum's size was reduced by 0 to <3 log 10 CFU/ml.
(§2) In this example, time-kill assays were performed as described in Example 9 using Apo6619 as the iron chelator against AB5075 (MRSN959), the MDR-clinical isolate of A. baumannii. The initial inocula was 1×10^6 CFU/mL, and were challenged with 0.5×MIC, 1×MIC and 2×MIC of Apo6619. Time-kill results were analyzed by determining the change in log 10 numbers of CFU/mL at 0, 2 and 4 hours.
as §2, with “VK28 or DFP” for “Apo6619”, “AB5075,” for “AB5075 (MRSN959),”, “either VK28 or DFP.” for “Apo6619.”, “at” for “at 0,”, “6” for “4”

[2] = test system: clinical isolates of A. baumannii; assay: MIC for clinical isolates in CAMHB media (Table 3); settings: Acinetobacter baumannii
Protocol: Individual MICs were determined following the microdilution method recommended by CLSI in cationic-adjusted Mueller-Hinton Broth (CAMHB), or M9 media. […] Tests were performed in triplicate. MIC of iron chelators were determined for noscomial ESKAPE pathogens.

[3] = test system: clinical isolates of A. baumannii; assay: MIC for clinical isolates in RPMI (low iron) media (Table 4); design: key to MIC of Iron Chelators: NG = no growth in table 4; settings: for MIC: Acinetobacter baumannii
Protocol: […] […] Tests were performed in triplicate. MIC of iron chelators were determined for noscomial ESKAPE pathogens.
For a number of strains, the iron chelators produced no growth of bacteria (NG).

[4] = test system: A. baumannii AB 19606, AB 17978; assay: Checkerboard assay, chelator with antibiotic (FIC)
Excerpt: Drug interactions were initially evaluated with the “checkerboard” microdilution design, which provided a matrix of all drug combinations assayed in terms of fractions of the previously determined MIC. The checkerboard microdilution design is described in R. J. Tallarida, “Drug Synergism: Its Detection and Applications,” Journal of Pharmacology and Experimental Therapeutics, 865-872 (2001); and in R. L. White, et al., (1996), supra. FIGS. 39A and 39B show the wellplates having different concentrations of iron chelator and antibiotic, as labeled along the x-axis and y-axis. […] The checkerboard assay was used to asses other combinations of iron chelators and antibiotics. The fractional inhibitory concentration index (FIC), which was calculated as follows: FIC=(MIC A in combination/MIC A)+(MIC B in combination/MIC B). […] Blank spaces indicate concentrations not tested. […] Against the species PA PAO1 and PA 27853, all the antibiotics except for Ami.

[5] = test system: multi-drug resistant bacterial species; assay: Time kill method, synergy with rifampin (summary)
Protocol: as §1

[6] = AB3638, read-out: MIC of Iron Chelators
[7] = AB3785, read-out: MIC of Iron Chelators
[8] = AB3806, read-out: MIC of Iron Chelators
[9] = AB3917, read-out: MIC of Iron Chelators
[10] = AB4025, read-out: MIC of Iron Chelators
[11] = AB4026, read-out: MIC of Iron Chelators
[12] = AB4027, read-out: MIC of Iron Chelators
[13] = AB4052, read-out: MIC of Iron Chelators
[14] = AB4269, read-out: MIC of Iron Chelators
[15] = AB4448, read-out: MIC of Iron Chelators
[16] = AB4456, read-out: MIC of Iron Chelators
[17] = AB4490, read-out: MIC of Iron Chelators
[18] = AB4498, read-out: MIC of Iron Chelators
[19] = AB4795, read-out: MIC of Iron Chelators
[20] = AB4857, read-out: MIC of Iron Chelators
[21] = AB4878, read-out: MIC of Iron Chelators
[22] = AB4932, read-out: MIC of Iron Chelators
[23] = AB4957, read-out: MIC of Iron Chelators
[24] = AB4991, read-out: MIC of Iron Chelators
[25] = AB5001, read-out: MIC of Iron Chelators
[26] = AB5075, read-out: MIC of Iron Chelators
[27] = AB5197, read-out: MIC of Iron Chelators
[28] = AB5256, read-out: MIC of Iron Chelators
[29] = AB5674, read-out: MIC of Iron Chelators
[30] = AB5711, read-out: MIC of Iron Chelators

OCCN1CCN(Cc2ccc(O)c3ncccc23)CC1 [VK28, 5-(4-(2-hydroxyethyl)piperazin-1-ylmethyl)-8-hydroxyquinoline]
effect on CFU/ml (time-kill, FIG. 13) ([1]; 0.5 MIC): inhibitory effect on the CFU/ml
CFU/mL at 24 hours ([1]; 0.5 MIC, CAMHB): about 1×10^9 CFU/mL
time-kill course of CFU/mL ([1]; 0.5×MIC, CAMHB): initial decrease in CFU/mL at 2 and 6 hours, but rebounded
effect on CFU/ml (time-kill, FIG. 13) ([1]; 1×MIC): inhibitory effect on the CFU/ml
time-kill course of CFU/mL ([1]; 1×MIC, CAMHB): did not increase in CFU over the 24 hour period
effect on CFU/ml (time-kill, FIG. 13) ([1]; 2×MIC): inhibitory effect on the CFU/ml
time-kill course of CFU/mL ([1]; 2×MIC, CAMHB): decrease in CFU/mL after 2 hours that was sustained through the 24 hour period
MIC ([2]; AB967, read-out: MIC of Iron Chelators): 250 µg/mL
MIC ([2]; AB2828, read-out: MIC of Iron Chelators): 250 µg/mL
MIC ([2]; AB3340, read-out: MIC of Iron Chelators): 250 µg/mL
MIC ([2]; AB3560, read-out: MIC of Iron Chelators): 250 µg/mL
MIC [2, 6]: 250 µg/mL
MIC [2, 7]: 250 µg/mL
MIC [2, 8]: 500 µg/mL
MIC [2, 9]: 500 µg/mL
MIC ([2]; AB3927, read-out: MIC of Iron Chelators): 250 µg/mL
MIC [2, 10]: 250 µg/mL
MIC [2, 11]: 250 µg/mL
MIC [2, 12]: 250 µg/mL
MIC [2, 13]: 500 µg/mL
MIC [2, 14]: 250 µg/mL
MIC [2, 15]: 250 µg/mL
MIC [2, 16]: 250 µg/mL
MIC [2, 17]: 250 µg/mL
MIC [2, 18]: 500 µg/mL
MIC [2, 19]: 250 µg/mL
MIC [2, 20]: 500 µg/mL
MIC [2, 21]: 500 µg/mL
MIC [2, 22]: 500 µg/mL
MIC [2, 23]: 500 µg/mL
MIC [2, 24]: 250 µg/mL
MIC [2, 25]: 250 µg/mL
MIC [2, 26]: 250 µg/mL
MIC [2, 27]: 250 µg/mL
MIC [2, 28]: 250 µg/mL
MIC [2, 29]: 250 µg/mL
MIC [2, 30]: 250 µg/mL
MIC of Iron Chelators ([3]; AB967): NG
MIC of Iron Chelators ([3]; AB2828): NG
MIC of Iron Chelators ([3]; AB3340): NG
MIC of Iron Chelators ([3]; AB3560): NG
MIC of Iron Chelators ([3]; AB3927): NG
MIC [3, 6]: 8 µg/mL
MIC [3, 7]: 8 µg/mL
MIC [3, 8]: 8 µg/mL
MIC [3, 9]: 4 µg/mL
MIC [3, 10]: 8 µg/mL
MIC [3, 11]: 8 µg/mL
MIC [3, 12]: 8 µg/mL
MIC [3, 13]: 8 µg/mL
MIC [3, 14]: 8 µg/mL
MIC [3, 15]: 8 µg/mL
MIC [3, 16]: 8 µg/mL
MIC [3, 17]: 8 µg/mL
MIC [3, 18]: 8 µg/mL
MIC [3, 19]: 4 µg/mL
MIC [3, 20]: 8 µg/mL
MIC [3, 21]: 8 µg/mL
MIC [3, 22]: 8 µg/mL
MIC [3, 23]: 8 µg/mL
MIC [3, 24]: 8 µg/mL
MIC [3, 25]: 8 µg/mL
MIC [3, 26]: 8 µg/mL
MIC [3, 27]: 4 µg/mL
MIC [3, 28]: 8 µg/mL
MIC [3, 29]: 8 µg/mL
MIC [3, 30]: 8 µg/mL
FIC ([4]; AB 17978, in combination with Amikacin): 1.25
FIC ([4]; AB 17978, in combination with Cefotaxine): 0.75
FIC ([4]; AB 17978, in combination with Colisitin (Colistin)): 0.75
FIC ([4]; AB 17978, in combination with Doxycycline): 1.25
FIC ([4]; AB 17978, in combination with Rifampin): 0.75
FIC ([4]; AB 19606, in combination with Amikacin): 1.25
FIC ([4]; AB 19606, in combination with Cefotaxine): 1.25
FIC ([4]; AB 19606, in combination with Colisitin (Colistin)): 0.75
FIC ([4]; AB 19606, in combination with Doxycycline): 2.25
FIC ([4]; AB 19606, in combination with Rifampin): 1.25
synergy with rifampin, time kill method [5]: strong synergy
